Measured values as given in patent publication US10258603B2 (priority 2014, dated 2019).

Each compound was assayed against T1, BRD4(BD1) (Homo sapiens, UniProt O60885) (assay: BRD4 AlphaLisa Binding Assay).
T1 construct: 42-168 was cloned, expressed, and purified to; His; made in house
Description: IC50 Measurements for Inhibitors Using BRD4 AlphaLisa Binding Assay

**Q.** How did the IC50 turn out when Cn1cc(C(=O)NCCN2CCOCC2)c2cc[nH]c2c1=O [Example 8, 6-methyl-N-(2-morpholinoethyl)-7-oxo-1H-pyrrolo[2,3-c]pyridine-4-carboxamide] was run?
**A.** 4.9 µM

**Q.** With Cn1cc(C(=O)NCCCN2CCOCC2)c2cc[nH]c2c1=O [Example 31, 6-methyl-N-(3-morpholinopropyl)-7-oxo-1H-pyrrolo[2,3-c]pyridine-4-carboxamide] as the compound, how does the IC50 read?
**A.** 17 µM

**Q.** CN1CCN(CCNC(=O)c2cn(C)c(=O)c3[nH]ccc23)CC1 [Example 32, 6-methyl-N-[2-(4-methylpiperazin-1-yl)ethyl]-7-oxo-1H-pyrrolo[2,3-c]pyridine-4-carboxamide] was tested. Which IC50 did it give?
**A.** 9.8 µM

**Q.** Which IC50 does the source give for Cn1cc(C(=O)N2CCC(Cc3cccnc3)CC2)c2cc[nH]c2c1=O [Example 46, 6-methyl-4-[4-(3-pyridylmethyl)piperidine-1-carbonyl]-1H-pyrrolo[2,3-c]pyridin-7-one] here?
**A.** 6.4 µM

**Q.** With Cn1cc(C(=O)N2CCC(n3cnc4ccccc43)CC2)c2cc[nH]c2c1=O [Example 50, 4-[4-(benzimidazol-1-yl)piperidine-1-carbonyl]-6-methyl-1H-pyrrolo[2,3-c]pyridin-7-one] as the compound, how does the IC50 read?
**A.** 16 µM

**Q.** Which IC50 does the source give for Cn1cc(C(=O)N2CCC(c3ccccn3)CC2)c2cc[nH]c2c1=O [Example 55, 6-methyl-4-[4-(2-pyridyl)piperidine-1-carbonyl]-1H-pyrrolo[2,3-c]pyridin-7-one] here?
**A.** 9.5 µM

**Q.** How did the IC50 turn out when Cn1cc(C(=O)N2CCC(C(F)(F)F)CC2)c2cc[nH]c2c1=O [Example 57, 6-methyl-4-[4-(trifluoromethyl)piperidine-1-carbonyl]-1H-pyrrolo[2,3-c]pyridin-7-one] was run?
**A.** 4.1 µM

**Q.** Which IC50 does the source give for Cn1cc(C(=O)N2CCC(C#N)CC2)c2cc[nH]c2c1=O [Example 64, 1-(6-methyl-7-oxo-1H-pyrrolo[2,3-c]pyridine-4-carbonyl)piperidine-4-carbonitrile] here?
**A.** 8 µM

**Q.** With Cn1cc(C(=O)NCc2ccc(S(C)(=O)=O)cc2)c2cc[nH]c2c1=O [Example 92] as the compound, how does the IC50 read?
**A.** 8.4 µM

**Q.** How did the IC50 turn out when COC(=O)[C@@H](NC(=O)c1cn(C)c(=O)c2[nH]ccc12)C1CCCCC1 [Example 93] was run?
**A.** 2.9 µM

**Q.** With C[C@@H](NC(=O)c1cn(C)c(=O)c2[nH]ccc12)C1CCCCC1 [Example 94] as the compound, how does the IC50 read?
**A.** 3.1 µM

**Q.** For COC[C@@H](NC(=O)c1cn(C)c(=O)c2[nH]ccc12)c1ccccc1 [Example 95], which IC50 is on record?
**A.** 11 µM

**Q.** Cn1cc(C(=O)N[C@H](C(=O)O)c2ccccc2)c2cc[nH]c2c1=O [Example 96] was tested. Which IC50 did it give?
**A.** 5 µM

**Q.** With Cn1cc(C(=O)NCC2CCOCC2)c2cc[nH]c2c1=O [Example 101] as the compound, how does the IC50 read?
**A.** 17 µM

**Q.** For CC(NC(=O)c1cn(C)c(=O)c2[nH]ccc12)c1ccccc1F (centres unmarked) [Example 116], which IC50 is on record?
**A.** 4.3 µM

**Q.** CCOC(C)CNC(=O)c1cn(C)c(=O)c2[nH]ccc12 (centres unmarked) [Example 117] was tested. Which IC50 did it give?
**A.** 4 µM

**Q.** COc1ccccc1C(C)NC(=O)c1cn(C)c(=O)c2[nH]ccc12 (centres unmarked) [Example 119] was tested. Which IC50 did it give?
**A.** 1.2 µM

**Q.** For CC(C)C(NC(=O)c1cn(C)c(=O)c2[nH]ccc12)c1ccccc1 (centres unmarked) [Example 123], which IC50 is on record?
**A.** 11 µM

**Q.** With CC(NC(=O)c1cn(C)c(=O)c2[nH]ccc12)c1ccc(Cl)cc1 (centres unmarked) [Example 126] as the compound, how does the IC50 read?
**A.** 3.2 µM

**Q.** Cc1ccccc1CCNC(=O)c1cn(C)c(=O)c2[nH]ccc12 [Example 127] was tested. Which IC50 did it give?
**A.** 1.2 µM

**Q.** For CC(c1ccccc1)N(C)C(=O)c1cn(C)c(=O)c2[nH]ccc12 (centres unmarked) [Example 128], which IC50 is on record?
**A.** 16 µM

**Q.** For Cn1cc(C(=O)NCC2CCCCN2C(=O)OC(C)(C)C)c2cc[nH]c2c1=O (centres unmarked) [Example 132], which IC50 is on record?
**A.** 13 µM

**Q.** With CC(C)c1cccc(N2CCC(N(C)C(=O)c3cn(C)c(=O)c4[nH]ccc34)CC2)c1 [Example 179, N-[1-(3-isopropylphenyl)-4-piperidyl]-N,6-dimethyl-7-oxo-1H-pyrrolo[2,3-c]pyridine-4-carboxamide] as the compound, how does the IC50 read?
**A.** 2.1 µM

**Q.** With CN(CC1CCN(Cc2ccccc2Cl)CC1)C(=O)c1cn(C)c(=O)c2[nH]ccc12 [Example 198] as the compound, how does the IC50 read?
**A.** 1.1 µM

**Q.** Which IC50 does the source give for CN(C(=O)c1cn(C)c(=O)c2[nH]ccc12)C1CCN(Cc2ccccc2C#N)CC1 [Example 215] here?
**A.** 3.8 µM

**Q.** With COc1cccc(CN2CCC(N(C)C(=O)c3cn(C)c(=O)c4[nH]ccc34)CC2)c1 [Example 222] as the compound, how does the IC50 read?
**A.** 16 µM

**Q.** How did the IC50 turn out when C[C@@H](NC(=O)c1cn(C)c(=O)c2[nH]ccc12)c1ccccc1 [Example 256, (R)-6-methyl-7-oxo-N-(1-phenylethyl)-6,7-dihydro-1Hpyrrolo[2,3-c]pyridine-4-carboxamide] was run?
**A.** 3.8 µM

**Q.** With Cn1cc(C(=O)NCCc2ccccc2)c2cc[nH]c2c1=O [Example 258] as the compound, how does the IC50 read?
**A.** 0.8 µM

**Q.** How did the IC50 turn out when COc1ccc(CNC(=O)c2cn(C)c(=O)c3[nH]ccc23)cc1 [Example 261] was run?
**A.** 2.7 µM

**Q.** With Cn1cc(C(=O)NCc2cccs2)c2cc[nH]c2c1=O [Example 262] as the compound, how does the IC50 read?
**A.** 3.3 µM

**Q.** How did the IC50 turn out when Cn1cc(C(=O)NC2CCCCc3ccccc32)c2cc[nH]c2c1=O (centres unmarked) [Example 265, 6-methyl-7-oxo-N-(6,7,8,9-tetrahydro-5Hbenzo[7]annulen-5-yl)-6,7-dihydro-1H-pyrrolo[2,3-c]pyridine-4-carboxamide] was run?
**A.** 5.3 µM

What follows are compounds tested against T2, BRD9 (Homo sapiens, UniProt Q9H8M2) (assay: BRD9 AlphaLisa Binding Assay).
T2 construct: 134-239 was cloned, expressed, and purified to homogeneity; Flag; made in house
T2 sequence (Q9H8M2 134-239 limits assumed): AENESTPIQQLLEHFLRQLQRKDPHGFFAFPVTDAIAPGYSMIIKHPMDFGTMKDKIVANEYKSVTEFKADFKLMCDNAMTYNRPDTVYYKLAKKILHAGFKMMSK
Procedure: IC50 Measurements for Inhibitors Using BRD9 AlphaLisa Binding Assay His/Flag epitope tagged BRD9134-239 was cloned, expressed, and purified to homogeneity. […] After 20 minutes incubation at room temperature AlphaLisa Streptavidin Acceptor Beads (Perkin-A[…]) and AlphaLisa Nickel donor beads (Perkin AS 10 ID) were added to a final concentration of 15 ug/mL each.

**Q.** CC(C)CCN1CCC(N(C)C(=O)c2cn(C)c(=O)c3[nH]ccc23)CC1 [Example 217] was tested. Which IC50 did it give?
**A.** 4.7 µM

**Q.** With CCCCn1cc(C(=O)NCC2CCN(C)CC2)c2cc[nH]c2c1=O [Example 248] as the compound, how does the IC50 read?
**A.** 3.3 µM

**Q.** How did the IC50 turn out when Cn1cc(C(=O)NCc2ccccc2)c2cc[nH]c2c1=O [Example 257] was run?
**A.** 0.18 µM

**Q.** For CCCCn1cc(C(=O)NCc2ccccc2)c2cc[nH]c2c1=O [Example 259], which IC50 is on record?
**A.** 0.6 µM

**Q.** For C/C=C/Cn1cc(C(=O)NCc2ccccc2)c2cc[nH]c2c1=O [Example 260], which IC50 is on record?
**A.** 0.18 µM

**Q.** Cn1cc(C(=O)NCc2ccc(F)cc2)c2cc[nH]c2c1=O [Example 263] was tested. Which IC50 did it give?
**A.** 0.48 µM

**Q.** Which IC50 does the source give for C[C@H](NC(=O)c1cn(C)c(=O)c2[nH]ccc12)c1ccccc1 [Example 264] here?
**A.** 0.44 µM
